Results on 3 compounds are retold here after patent US8999970B2, “Administration of an anti-obesity compound to individuals with renal impairment” (Arena Pharmaceuticals, Inc., priority 2010, dated 2015).

The structures appear in SMILES notation.

A short description of data set [1]: Preclinical toxicology: M1 and M5 pharmacokinetics after oral administration of lorcaserin, 52 wk, mice.
A short description of data set [2]: APD356-009 study: M1 Cmax at Week 12 following lorcaserin 10 mg BID.
A short description of data set [3]: Creatinine and creatinine clearance during 52 weeks in pooled phase 3 studies. Format: in vivo, human. Here is the method:
Few patients in the APD356-009 trial developed creatinine values above or creatinine clearance values below normal (Table 12). At study entry, no patient had creatinine clearance less than 30 mL/min, and only 4 (1 randomized to lorcaserin, 3 to placebo) had values below 40 mL/min based on ideal body weight. […] Given the small number of patients with moderate or greater renal impairment in the phase 3 studies, a meaningful evaluation of the relationship between adverse events and renal impairment is not possible.

Data set [4] in a line: Toxicity studies in rats (determination of NOAEL). Format: in vivo. Conditions: for Exposure multiple relative to human exposure at 10 mg BID: rats 5 mg/kg/day (NOAEL); for Exposure multiple of human exposure at 10 mg BID: rats 50 mg/kg/day for 6 months. Here is the method: In rats, a single 1000 mg/kg dose caused death. […] The highest dose tested in 28-day studies, 50 mg/kg/day, was associated with increased serum lipids, centrilobular hepatocellular hypertrophy, splenic extramedullary hematopoiesis, increased pigmented macrophages, and reticulocytosis, and increased kidney weights, with minimal renal tubular epithelial hyperplasia in males only. A 13-week study and a 6-month study gave similar findings except there was no renal tubular epithelial changes and increases in kidney weights were limited to the 3-month study; the NOAEL was 5 mg/kg/day, which produced exposure multiples of 1.2 and 2.8 (males and females) relative to human exposure at a dose of 10 mg BID.
In rats but not mice, modest increases in kidney weights were reported at high dose (≧50 mg/kg) in the 10-day, 28-day and 3-month studies, but were without microscopic correlate except in the 28-day study, in which minimal renal tubular epithelial hypertrophy was reported in male rats. In the one year toxicology study in monkeys, minimal to moderate focal tubular epithelial degeneration and/or regeneration were observed. The potential clinical relevance of this finding was evaluated in two ways. First, two pathologists with expertise in human renal pathology (Helmut Rennke, M.D. and Stephen Bonsib, M.D.) independently reviewed all monkey kidney slides from the 1-year study in a blinded manner. Both reported the findings to be mild and focal, clinically unimportant, without dose relationship, and more likely related to aging, infection, or inflammation than to study drug. Secondly, renal function was monitored in clinical trials not only by measuring creatinine and BUN, but also by examining urine sediment and by calculating creatinine clearance. The urine sediment data are of limited value due to the preponderance of “dirty” urine specimens contaminated with epithelial cells and other external debris. Neither BUN nor creatinine was affected by lorcaserin. Creatinine clearance, which was calculated using both actual body weight and the preferred ideal body weight method, was also not affected by lorcaserin use of up to 2 years.

The nature of data set [5]: Pivotal phase 3 clinical trial program (weight loss). Format: in vivo, human.
Description: (§1) In December 2009, Arena Pharmaceuticals submitted a New Drug Application, or NDA, for lorcaserin to the FDA. The NDA submission is based on an extensive data package from lorcaserin's clinical development program that includes 18 clinical trials totaling 8,576 patients. […] About two-thirds of patients achieved at least 5% weight loss and over one-third achieved at least 10% weight loss. On average, patients lost 17 to 18 pounds or about 8% of their weight. Secondary endpoints, including body composition, lipids, cardiovascular risk factors and glycemic parameters improved compared to placebo. In addition, heart rate and blood pressure went down. […] Lorcaserin improved quality of life, and there was no signal for depression or suicidal ideation. The only adverse event that exceeded the placebo rate by 5% was generally mild or moderate, transient headache. Based on a normal BMI of 25, patients in the first phase 3 trial lost about one-third of their excess body weight. The average weight loss was 35 pounds or 16% of body weight for the top quartile of patients in the second phase 3 trial.
as §1, with “Heart” for “In addition, heart”

Setting [6] is: lorcaserin 25 mg/kg/day oral, F.
The mark [7] stands for this setting: lorcaserin 25 mg/kg/day oral, M.
[8] abbreviates: lorcaserin 50 mg/kg/day oral, F.
Setting [9] is: lorcaserin 50 mg/kg/day oral, M.
The mark [10] stands for this setting: phase 3 program, treated for up to two years.

Regarding `C[C@H]1CN(C(=O)O[C@@H]2O[C@H](C(=O)O)[C@@H](O)[C@H](O)[C@H]2O)CCc2ccc(Cl)cc21` [Compound M5, N-carbamoyl glucuronide of lorcaserin], the AUC0-inf in data set [1] (lorcaserin 5 mg/kg/day oral, F) came out at 201 ng·h/mL; in data set [1] (lorcaserin 5 mg/kg/day oral, M) it was 178 ng·h/mL; in data set [1] (setting [8]), 3260 ng·h/mL; in data set [1] (setting [9]) it was 3470 ng·h/mL. The AUClast in data set [1] (lorcaserin 5 mg/kg/day oral, F) is 184 ng·h/mL; in data set [1] (lorcaserin 5 mg/kg/day oral, M), 134 ng·h/mL; in data set [1] (setting [6]), 1210 ng·h/mL; in data set [1] (setting [7]), 1840 ng·h/mL; in data set [1] (setting [8]) it was 3230 ng·h/mL; in data set [1] (setting [9]), 3420 ng·h/mL. Besides, the Cmax in data set [1] (lorcaserin 5 mg/kg/day oral, F) was 100 ng/mL; in data set [1] (lorcaserin 5 mg/kg/day oral, M), 98.3 ng/mL; in data set [1] (setting [6]), 431 ng/mL; in data set [1] (setting [7]), 590 ng/mL; in data set [1] (setting [8]), 824 ng/mL; in data set [1] (setting [9]), 1000 ng/mL. The tmax in data set [1] (lorcaserin 5 mg/kg/day oral, F) was 30 min; in data set [1] (lorcaserin 5 mg/kg/day oral, M), 30 min; in data set [1] (setting [6]), 30 min; in data set [1] (setting [7]) it was 30 min; in data set [1] (setting [8]) it was 30 min; in data set [1] (setting [9]), 30 min.

`C[C@H]1CN(S(=O)(=O)O)CCc2ccc(Cl)cc21` [Compound M1, lorcaserin sulfamate]: the AUC0-inf in data set [1] (lorcaserin 5 mg/kg/day oral, F) came to 75200 ng·h/mL; in data set [1] (lorcaserin 5 mg/kg/day oral, M), 61200 ng·h/mL; in data set [1] (setting [6]), 221000 ng·h/mL; in data set [1] (setting [8]), 356000 ng·h/mL; in data set [1] (setting [9]) it was 319000 ng·h/mL. Besides, the AUClast came out at 74400 ng·h/mL in data set [1] (lorcaserin 5 mg/kg/day oral, F); 59700 ng·h/mL in data set [1] (lorcaserin 5 mg/kg/day oral, M); 217000 ng·h/mL in data set [1] (setting [6]); 223000 ng·h/mL in data set [1] (setting [7]); 345000 ng·h/mL in data set [1] (setting [8]); 308000 ng·h/mL in data set [1] (setting [9]). Moreover, the Cmax was determined as 14400 ng/mL in data set [1] (lorcaserin 5 mg/kg/day oral, F); 10800 ng/mL in data set [1] (lorcaserin 5 mg/kg/day oral, M); 39800 ng/mL in data set [1] (setting [6]); 25400 ng/mL in data set [1] (setting [7]); 49100 ng/mL in data set [1] (setting [8]); 42700 ng/mL in data set [1] (setting [9]). The tmax is 30 min in data set [1] (lorcaserin 5 mg/kg/day oral, F); 30 min in data set [1] (lorcaserin 5 mg/kg/day oral, M); 30 min in data set [1] (setting [6]); 30 min in data set [1] (setting [7]); 30 min in data set [1] (setting [8]); 30 min in data set [1] (setting [9]). Besides, the “Mean Cmax observed in patients” value in data set [2] was determined as 196 ng/mL.

`C[C@H]1CNCCc2ccc(Cl)cc21` [Lorcaserin, (R)-8-chloro-1-methyl-2,3,4,5-tetrahydro-1H-3-benzazepine]: in data set [3] (Any Lorcaserin Dose, N 3746), the “Creatinine Clearance at Last Observation (Ideal Body Weight), Mean (SEM) Change from Baseline” value was 0.25 (0.165). Moreover, the “Creatinine Clearance at Last Observation (Ideal Body Weight), Mean (SEM) Change from Baseline” value in data set [3] (Lorcaserin 10 mg BID Pooled, N 2992) is recorded as 0.47 (0.181). Also, in data set [4] (both sexes, rat, in vivo, rats, 13-week and 6-month studies), the NOAEL was determined as 5 mg/kg/day. Moreover, the “Single dose that caused death” value in data set [4] (rats) worked out at 1000 mg/kg. In data set [4] (females), the “Exposure multiple relative to human exposure at 10 mg BID” value was 2.8 and the “Exposure multiple of human exposure at 10 mg BID” value was 34 times. In addition, in data set [4] (males), the “Exposure multiple relative to human exposure at 10 mg BID” value is 1.2 and the “Exposure multiple of human exposure at 10 mg BID” value amounted to 22 times. In addition, the “Doses with no mortality” value in data set [4] (rats, 10-day repeat dose studies) is listed as at most 150 mg/kg/day. Also, the “Doses with modest increases in kidney weights” value in data set [4] (rats, 10-day, 28-day and 3-month studies) is at least 50 mg/kg. For the same compound, the “Excess body weight lost” value in data set [5] (first phase 3 trial, based on a normal BMI of 25) is on record as “about one-third”. In data set [5] (phase 3 program), the “Average weight lost, of their weight” value is “about 8%” and the “Risk of cardiac valvulopathy” value is recorded as “did not increase the risk”. In data set [5] (setting [10]), the “Patients who achieved at least 5% weight loss” value is recorded as “About two-thirds” and the “Patients who achieved at least 10% weight loss” value was “over one-third”. Further, in data set [5] (second phase 3 trial), the “Average weight loss, top quartile of patients” value was 35 pounds and the “Average weight loss, top quartile of patients, of body weight” value is on record as 16%.
